# Experimental data published in patent publication US20060045953A1 (priority 2004, published 2006).
# pEC50: −log10 of the molar value.
# Target: T1, hT1R1/hT1R3 umami receptor (Homo sapiens, UniProt Q7RTX0+Q7RTX1)
# T1 construct: expressed in transfected cells; host or cells: HEK293 derivative stably expressing Gα15, clone I-17, expression induced with mifepristone
# T1 sequence (Q7RTX1 21-841): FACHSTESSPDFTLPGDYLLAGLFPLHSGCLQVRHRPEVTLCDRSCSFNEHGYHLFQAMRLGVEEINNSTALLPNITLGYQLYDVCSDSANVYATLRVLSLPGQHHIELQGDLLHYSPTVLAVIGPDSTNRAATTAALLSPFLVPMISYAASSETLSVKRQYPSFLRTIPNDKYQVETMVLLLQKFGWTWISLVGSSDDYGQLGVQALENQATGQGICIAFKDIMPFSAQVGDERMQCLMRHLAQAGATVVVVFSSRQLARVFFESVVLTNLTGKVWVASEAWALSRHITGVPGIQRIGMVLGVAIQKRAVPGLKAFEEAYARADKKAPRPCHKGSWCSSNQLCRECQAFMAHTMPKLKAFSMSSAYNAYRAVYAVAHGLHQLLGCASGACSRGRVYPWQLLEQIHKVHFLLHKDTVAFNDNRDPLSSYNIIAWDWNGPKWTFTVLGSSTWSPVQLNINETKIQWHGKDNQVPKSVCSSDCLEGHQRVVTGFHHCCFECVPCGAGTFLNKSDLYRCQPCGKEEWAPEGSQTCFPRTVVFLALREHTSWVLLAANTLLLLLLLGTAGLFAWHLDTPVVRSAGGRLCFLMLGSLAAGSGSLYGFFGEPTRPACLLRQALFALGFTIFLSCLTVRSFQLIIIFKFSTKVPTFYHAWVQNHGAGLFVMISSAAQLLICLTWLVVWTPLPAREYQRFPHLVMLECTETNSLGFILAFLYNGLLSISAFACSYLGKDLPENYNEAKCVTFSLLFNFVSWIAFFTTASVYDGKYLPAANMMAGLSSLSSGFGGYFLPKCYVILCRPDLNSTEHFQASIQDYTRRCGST
# T1 sequence (Q7RTX0 21-852): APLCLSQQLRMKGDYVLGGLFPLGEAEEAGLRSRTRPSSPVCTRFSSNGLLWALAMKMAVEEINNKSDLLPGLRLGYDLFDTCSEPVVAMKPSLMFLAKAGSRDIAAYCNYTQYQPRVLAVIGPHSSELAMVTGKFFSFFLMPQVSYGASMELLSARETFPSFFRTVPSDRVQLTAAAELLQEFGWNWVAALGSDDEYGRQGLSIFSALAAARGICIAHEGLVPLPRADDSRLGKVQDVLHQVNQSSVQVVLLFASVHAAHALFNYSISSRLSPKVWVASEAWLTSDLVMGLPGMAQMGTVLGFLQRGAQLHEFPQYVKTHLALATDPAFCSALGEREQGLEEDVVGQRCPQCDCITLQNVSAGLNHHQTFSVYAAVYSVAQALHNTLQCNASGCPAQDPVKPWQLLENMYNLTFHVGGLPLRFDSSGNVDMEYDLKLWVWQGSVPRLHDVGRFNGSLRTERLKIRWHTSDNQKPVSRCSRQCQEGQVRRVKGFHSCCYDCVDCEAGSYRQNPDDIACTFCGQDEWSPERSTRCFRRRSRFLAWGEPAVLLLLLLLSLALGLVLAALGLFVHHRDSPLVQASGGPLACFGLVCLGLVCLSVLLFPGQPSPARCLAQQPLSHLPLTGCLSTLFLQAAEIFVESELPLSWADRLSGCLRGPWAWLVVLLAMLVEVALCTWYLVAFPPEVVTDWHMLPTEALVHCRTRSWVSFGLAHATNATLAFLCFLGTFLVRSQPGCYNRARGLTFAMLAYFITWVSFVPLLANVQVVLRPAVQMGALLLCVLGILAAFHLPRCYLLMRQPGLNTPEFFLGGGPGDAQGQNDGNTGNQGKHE
# Assay: In vitro hT1R1/hT1R3 umami taste receptor activation assay (FLIPR, dose response)
# Format: cell-based
# Conditions: read-out: EC50 for activation of a hT1R1/hT1R3 umami receptor expressed in an HEK293 cell line
row,pEC50,SMILES
1,5.92,"O=C(NC1CCc2ccccc21)c1ccc2c(c1)OCO2 (stereo not shown) [Example 118, Benzo[1,3]dioxole-5-carboxylic acid indan-1-ylamide]"
2,6.40,"CCC(CC)NC(=O)c1ccc(OC)c(C)c1 [Example 119, 4-methoxy-3-methyl-N-(pentan-3-yl)benzamide]"
3,5.22,"Cc1ccc(CCNC(=O)c2occc2C)cc1 [Example 120, 3-methyl-N-(p-tolylethyl)furan-2-carboxamide]"
4,5.78,"COc1ccc(CNC(=O)c2ccccc2-n2cccc2)c(OC)c1 [Example 121, N-(2,4-dimethoxybenzyl)-2-(1H-pyrrol-1-yl)benzamide]"
5,5.74,"COc1ccc(CNC(=O)C(=O)NCCCc2ccccn2)c(OC)c1 [Example 127, N-(2,4-Dimethoxy-benzyl)-N′-(3-pyridin-2-yl-propyl)-oxalamide]"
6,6.12,"COc1ccc(CNC(=O)C(=O)NCCc2ccccn2)cc1 [Example 128, N-(4-Methoxybenzyl)-N′-(2-pyridin-2-yl-ethyl)-oxalamide]"
7,5.79,"COc1ccc(CNC(=O)C(=O)NCCc2ncccc2C)c(OC)c1 [Example 129, N-(2,4-Dimethoxybenzyl)-N′-(2-(3-methylpyridin-2-yl)ethyl)oxalamide]"
8,8.00,"O=C(NCCc1ccccn1)C(=O)NCc1ccccc1Cl [Example 136, N-(2-chlorobenzyl)-N′-(2-(pyridin-2-yl)ethyl)oxalamide]"
9,6.52,"O=C(NCCc1ccccn1)C(=O)NCc1cccc2c1OCCO2 [Example 137, N-((2,3-dihydrobenzo[b][1,4]dioxin-5-yl)methyl)-N′-(2-(pyridin-2-yl)ethyl) oxalamide]"
10,6.30,"O=C(NCCc1ccccn1)C(=O)NCc1ccc2c(c1)OCO2 [Example 138, N-(benzo[d][1,3]dioxol-5-ylmethyl)-N′-(2-(Pyridin-2-yl)ethyl)oxalamide]"
11,6.10,"CCc1ccc(CNC(=O)C(=O)NCCc2ccccn2)cc1 [Example 139, N-(4-Ethylbenzyl)-N′-(2-(pyridin-2-yl)ethyl)oxalamide]"
12,5.75,"O=C(NCCc1ccccn1)C(=O)NCc1ccc2occc2c1 [Example 140, N-(Benzofuran-5-ylmethyl)-N′-(2-(pyridin-2-yl)ethyl)oxalamide]"
13,5.44,"COC(=O)c1ccc(CNC(=O)C(=O)NCCc2ccccn2)cc1 [Example 141, N-((4-Methoxycarbonylphenyl)methyl)-N′-(2-(pyridin-2-yl)ethyl)oxalamide]"
14,5.07,CC(=O)Oc1ccccc1CNC(=O)C(=O)NCCc1ccccn1 [Example 142]
15,6.40,"COc1ccc(CNC(=O)C(=O)NC(C)Cc2ccccn2)c(OC)c1 (stereo not shown) [Example 143, N-(2,4-Dimethoxybenzyl)-N′-(1-(Pyridin-2-yl)propan-2-yl)oxalamide]"
16,5.97,"COc1ccc(CNC(=O)C(=O)NCC(C)c2ccccn2)c(OC)c1 (stereo not shown) [Example 144, N-(294-Dilmethoxybenzyl)-N′-(2-(pyridin-2-yl)propyl)oxalamide]"
17,6.23,Cc1ccccc1CNC(=O)C(=O)NCCc1ccccn1 [Example 145]
18,6.16,"COc1cccc(CNC(=O)C(=O)NCCc2ccccn2)c1OC [Example 146, N-(2,3-Dimethoxybenzyl)-N′-(2-(pyridin-2-yl)ethyl)oxalamide]"
19,6.02,"CSc1ccccc1CNC(=O)C(=O)NCCc1ccccn1 [Example 147, N-(2-(Methylthio)benzyl)-N′-(2-(pyridin-2-yl)ethyl)oxalamide]"
20,5.51,"O=C(NCCc1ccccn1)C(=O)NCc1ccccc1O [Example 148, N-(2-Hydroxybenzyl)-N′-(2-(pyridin-2-yl)ethyl)oxalamide]"
21,6.77,"O=C(NCCc1ccccn1)C(=O)NCc1cccc2c1OCO2 [Example 149, N-(Benzo[d][1,3]dioxol-4-ylmethyl)-N′-(2-(pyridin-2-yl)ethyl)oxalamide]"
22,6.13,"O=C(NCCc1ccccn1)C(=O)NCc1cc2ccccc2s1 [Example 150, N-(Benzo[b]thiophen-2-ylmethyl)-N′-(2-(pyridin-2-yl)ethyl)oxalamide]"
